One block for each molecule: values may come before it.
What was measured:
Elastase [1] = target: T1, Elastase (Homo sapiens, UniProt P08246); test: In vitro assay of elastase in the presence of the prodrug and porcine liver esterase; assay type: biochemical
T1 construct: Elastase is isolated from human sputum; from tissue; host or cells: human sputum
T1 sequence (P08246 30-267): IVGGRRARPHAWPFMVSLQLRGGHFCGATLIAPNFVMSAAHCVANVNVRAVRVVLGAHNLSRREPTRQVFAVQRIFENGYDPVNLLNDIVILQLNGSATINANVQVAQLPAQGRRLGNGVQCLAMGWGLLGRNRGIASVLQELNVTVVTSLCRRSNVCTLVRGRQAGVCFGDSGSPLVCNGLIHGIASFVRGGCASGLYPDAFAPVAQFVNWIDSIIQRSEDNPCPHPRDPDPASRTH
Method: (§1) Elastase was assayed in vitro using the chromogenic substrate N-MeOSuc-Ala-Ala-Pro-Val-p-nitroanilide ([S]=0.20 mM; Km=0.16 mM), available commercially. The assay techniques are similar to those described by Mehdi, et al., Biochemical and Biophysical Research Communications, 166, 595 (1990). The assay mixture consists of partially purified elastase and substrate (0.2 mM) in 0.1 M HEPES (pH 7.5), 0.5 M NaCl, 10% DMSO and 0.1% Brij 35. The reaction (1 or 2 mL, in a plastic cuvette) is maintained at 37° C. and the hydrolysis of the substrate is followed in the presence of MDL 104,569 and 5 units/mL of porcine liver esterase (Sigma Chemical Co., cat. no. E-3128). Elastase is isolated from human sputum, although recently it has become commercially available. The rate of hydrolysis of the substrate with no inhibitor or prodrug added is assigned 100%. In the presence of 1 μM MDL 104,569, a rate of 81% was obtained; when esterase ([…], Sigma Chemical Co.) was also present, the rate decreased to 24%.
(§2) Elastase was assayed in vitro in the presence of MDL 105,565 using the techniques and procedures described in Example 18. With MDL 105,565, at a concentration of 10 nM, a rate of 99% was obtained; when esterase was added, this rate was 76%. At a concentration of 45 nM, the rates were 94% (without esterase) and 37% (with esterase).

Elastase [2] = target: T1, Elastase; test: In vitro assay of elastase with chromogenic substrate N-MeOSuc-Ala-Ala-Pro-Val-p-nitroanilide, no esterase; assay type: biochemical; details: for rate of hydrolysis of the substrate (no inhibitor or prodrug added = 100%): without esterase; for Ki: parent (liberated) drug itself, read-out: Ki measured / determined independently
Method: as §1, §2

- rate of hydrolysis of the substrate (no inhibitor or prodrug added = 100%) (Elastase [1]; 1 μM compound, esterase also present): 24%
- rate of hydrolysis of the substrate (no inhibitor or prodrug added = 100%) (Elastase [2]; 1 μM compound, substrate 0.2 mM, pH 7.5, 37° C.): 81%
Structure (SMILES): COC(=O)CCC(=O)N[C@@H](C)C(=O)N[C@@H](C)C(=O)N1CCC[C@H]1C(=O)NC(=C(OC(C)=O)C(=O)OC)C(C)C (mixture of isomers) [MDL 104,569, L-Prolinamide, N-(4-methoxy-1,4-dioxobutyl)-L-alanyl-L-alanyl-N-[2-(acetyloxy)-3-methoxy-1-(1-methylethyl)-3-oxo-1-propenyl]-, (E)- and (Z)-mixture]

- rate of hydrolysis of the substrate (no inhibitor or prodrug added = 100%) (Elastase [1]; 10 nM compound, esterase added): 76%
- rate of hydrolysis of the substrate (no inhibitor or prodrug added = 100%) (Elastase [1]; 45 nM compound, with esterase): 37%
- rate of hydrolysis of the substrate (no inhibitor or prodrug added = 100%) (Elastase [2]; 10 nM compound): 99%
- rate of hydrolysis of the substrate (no inhibitor or prodrug added = 100%) (Elastase [2]; 45 nM compound): 94%
Structure (SMILES): COC(=O)/C(OC(C)=O)=C(\NC(=O)[C@@H]1CCCN1C(=O)[C@@H](NC(=O)c1ccc(C(=O)NS(=O)(=O)c2ccc(Cl)cc2)cc1)C(C)C)C(C)C [MDL 105,565, L-Prolinamide, N-[4-[[[(4-chlorophenyl)sulfonyl]amino]carbonyl]benzoyl]-L-valyl-N-[2-(acetyloxy)-3-methoxy-1-(1-methylethyl)-3-oxo-1-propenyl]-, (E)]

- Ki (Elastase [1]; drug liberated from MDL 105,565 by esterase in the assay, read-out: Ki of the liberated drug, calculated): 13 nM
- Ki (Elastase [2]): 2 nM
Structure (SMILES): COC(=O)C(=O)C(NC(=O)C1CCCN1C(=O)C(NC(=O)c1ccc(C(=O)NS(=O)(=O)c2ccc(Cl)cc2)cc1)C(C)C)C(C)C (stereo not drawn) [liberated drug, reference compound]

- Ki (Elastase [2]): 200 nM
Structure (SMILES): COC(=O)CCC(=O)NC(C)C(=O)NC(C)C(=O)N1CCCC1C(=O)NC(C(=O)C(=O)OC)C(C)C (stereo not drawn) [parent drug, MeOSuc-Ala-Ala-Pro-Val-CO2 CH3, reference compound]

From patent US5948886A, “Acylated enol derivatives of α-ketoesters and α-ketoamides” (Hoechst Marion Roussel, Inc., priority 1997, dated 1999)
